Assay results: patent EP0145177A2, “Chemotherapeutic agents based on rhizoxin” (priority 1983, dated 1985)

What was measured:
[1] = tested on: ascites tumor MH-134 cells due to the cancer of the liver; experiment: Antitumor activity against ascites tumor MH-134 in mice (Test Example 1); type: in vivo, C3H/He mice; conditions: for Average life span: once a day for 10 days from 24 hours after inoculation, control 17.2 days; for T/C (%): once a day for 10 days, ratio of average life span, treated/control x 100
Experimental: 1 x 10^6 of ascites tumor MH-134 cells due to the cancer of the liver were intraperitoneally inoculated into C3H/He mice (8 weeks old, each group 6 mice). Rhizoxin was dissolved with the addition of a small quantity of ethyl alcohol (not more than 1 volume percent on the basis of the total volume of the final solution), and further dissolved in a 0.85 X aqueous physiological sodium chloride solution containing 0.05 % of Tween 20. This solution was aseptically filtered, and 24 hours after the tumor inoculation, the solution was intraperitoneally administered to the mice continually for 10 days at a rate of 0.2 ml/mouse once a day. The antitumor activity of Rhizoxin was evaluated on the basis of the ratio (T/C) x 100 wherein T is the average life span of the Rhizoxin administered groups and C is the average life span of the control group.

Leukemia L-1210 cells = experiment: Antitumor activity against leukemia L-1210 in mice (Test Example 2); type: in vivo, CDF1 mice; conditions: daily for 4 days; for ILS (%): increase in life span over control
Experimental: Leukemia L-1210 cells (1 x 10^5 cells) were intraperitoneally inoculated into CDF1 mice. Intraperitoneal administration of Rhizoxin was started 24 hours after the tumor inoculation and continued daily for 4 days. The result is shown in Table 2 in terms of a percentage of an increase in the life span of the treated mice over that of the control mice (ILS).

B-16 melanoma = experiment: Tumor growth inhibition of B-16 melanoma in mice (Test Example 3); type: in vivo, BDF1 mice; conditions: daily for 4 days, based on tumor weight from tumor diameter
Experimental: Tumor fragments of B-16 melanoma were subcutaneously inoculated into BDF1 mice. Intraperitoneal administration of Rhizoxin was begun 24 hours after the tumor inoculation and continued daily for 4 days.
The-result is shown in Table 3 in terms of a percentage of tumor growth inhibition based on the tumor weight which can be obtained from the measurement of the tumor diameter.

leukemia P-388 cells = experiment: Antitumor activity against Vincristine sensitive leukemia P-388 in mice (Test Example 4); type: in vivo, CDF1 mice; conditions: for ILS (%): P-388
Source text: (§1) Vincristine resistant or sensitive leukemia P-388 cells (1 x 10^6 cells) were intraperitoneally inoculated into CDF1 mice. Intraperitoneal administration of Rhizoxin and Vincristine was made on 1, 6 and 9 days after the tumor inoculation. The result is shown in Table 4 in terms of a percentage of an increase in the average life span of the treated mice over that of the control mice.

[2] = tested on: Vincristine resistant leukemia P-388 cells (P-388/VCR); experiment: Antitumor activity against Vincristine resistant leukemia P-388 in mice (Test Example 4); type: in vivo, CDF1 mice; conditions: for ILS (%): P-388/VCR; for effectiveness against Vincristine resistant leukemia P-388: summary in words of Table 4
Source text: as §1

[3] = Toxicity by intraperitoneal injection into mice; conditions: mouse, in vivo, ip, C3H/He mice, read-out: LDS 0 value
Experimental: The toxicity of Rhizoxin was examined by the intraperitoneal injection of said compound into C3H/He mice, and as the LDS 0 value was above 5 mg/kg, it may be mentioned that the value is far above the dosage usually given in treatment.

Solubility in solvents = type: physicochemical
rice seedling = experiment: Induction of the characteristic symptoms of rice seedling blight; type: in vivo; conditions: Oryza sativa; extremely low concentration at which the action is still seen; read-out: concentration that can induce the characteristic symptoms of rice seedling blight
Experimental: (§2) Rhizoxin has an action which can induce the characteristic symptoms of rice seedling blight, even at an extremely low concentration (10 ng/ml).

plants other than rice = experiment: Growth of the root of plants other than rice; conditions: in vivo
Experimental: as §2

plant pathogenic fungi = experiment: Growth of plant pathogenic fungi; type: cell-based
Experimental: as §2

[4] = tested on: plant pathogenic bacteria; experiment: Multiplication of plant pathogenic bacteria; type: cell-based; conditions: bacteria that are prokaryotes
Experimental: as §2

[5] = 15 mcg/Kg/day intraperitoneally
[6] = 150 mcg/Kg/day intraperitoneally
[7] = 0.25 mg/Kg/day intraperitoneally
[8] = 0.5 mg/Kg/day intraperitoneally
[9] = 1.0 mg/Kg/day intraperitoneally
[10] = 0.75 mg/Kg/day intraperitoneally on 1, 6 and 9 days after inoculation
[11] = 1.0 mg/Kg/day intraperitoneally on 1, 6 and 9 days after inoculation
[12] = 1.5 mg/Kg/day intraperitoneally on 1, 6 and 9 days after inoculation
[13] = 2.0 mg/Kg/day intraperitoneally on 1, 6 and 9 days after inoculation

CO[C@@H](/C(C)=C/C=C/C(C)=C/c1coc(C)n1)[C@@H](C)[C@@H]1C[C@H](O)[C@@]2(C)O[C@@H]2/C=C/[C@@H](C)[C@H]2C[C@H](CC(=O)O2)C[C@@H]2O[C@H]2C(=O)O1 [Rhizoxin]
Average life span [1, 5]: 31.8 days | T/C (%) [1, 5]: 185% | Average life span [1, 6]: 47.8 days | T/C (%) [1, 6]: 278% | Change in body weight (g) (day 1-7) (Leukemia L-1210 cells; [7]): +0.4 g | ILS (%) (Leukemia L-1210 cells; [7]): 43% | Change in body weight (g) (day 1-7) (Leukemia L-1210 cells; [8]): -0.7 g | ILS (%) (Leukemia L-1210 cells; [8]): 67% | Change in body weight (g) (day 1-7) (Leukemia L-1210 cells; [9]): -2.9 g | ILS (%) (Leukemia L-1210 cells; [9]): 81% | ILS (%) (Leukemia L-1210 cells; 2.0 mg/Kg/day intraperitoneally): toxic | Tumor growth inhibition (%) (B-16 melanoma; [7]): 38% | Tumor growth inhibition (%) (B-16 melanoma; [8]): 68% | Tumor growth inhibition (%) (B-16 melanoma; [9]): 62% | ILS (%) (leukemia P-388 cells; 0.5 mg/Kg/day intraperitoneally on 1, 6 and 9 days after inoculation): 46.2% | ILS (%) (leukemia P-388 cells; [10]): 65.6% | ILS (%) (leukemia P-388 cells; [11]): 82.9% | ILS (%) (leukemia P-388 cells; [12]): 123.7% | ILS (%) (leukemia P-388 cells; 3.0 mg/Kg/day intraperitoneally on 1, 6 and 9 days after inoculation): toxic | effectiveness against leukemia P-388 (leukemia P-388 cells; summary in words of Table 4): effective | ILS (%) [2, 10]: 28.2% | ILS (%) [2, 11]: 35.9% | ILS (%) [2, 12]: 57.3% | ILS (%) [2, 13]: 61.2% | ILS (%) ([2]; 4.0 mg/Kg/day intraperitoneally on 1, 6 and 9 days after inoculation): toxic | effectiveness against Vincristine resistant leukemia P-388 [2]: clearly effective | LD50 [3]: > 5 mg/kg | Solubility in solvents (Solubility in solvents; benzene, chloroform, acetone, alcohol, etc.): Easily soluble | Solubility in solvents (Solubility in solvents; water, n-hexane): sparingly soluble | minimal effective concentration (rice seedling): 0.01 µg/mL | action on the growth of the root of the plants other than rice (plants other than rice): check the growth of the root | action on the growth of plant pathogenic fungi (plant pathogenic fungi): inhibits the growth | action on the multiplication of the plant pathogenic bacteria [4]: no recognizable action

CC[C@]1(O)C[C@H]2CN(CCc3c([nH]c4ccccc34)[C@@](C(=O)OC)(c3cc4c(cc3OC)N(C=O)[C@H]3[C@@](O)(C(=O)OC)[C@H](OC(C)=O)[C@]5(CC)C=CCN6CC[C@]43[C@@H]65)C2)C1 [Vincristine, reference compound]
ILS (%) [2, 11]: 6.8% | ILS (%) [2, 13]: toxic | effectiveness against Vincristine resistant leukemia P-388 [2]: not affected
